Assay results as given in patent US4505924A, “Pharmaceutical preparation for the topical treatment of acne” (Richardson-Vicks Ltd., priority 1982, dated 1985).
Like-named read-outs stand apart in the source and are kept apart here.

What was measured:
[1] = Zone diffusion test for synergistic activity; format: cell-based; conditions: single substance; for zone of inhibition at 10 µg/disc: 10 μg; for zone of inhibition at 100 µg/disc: 100 μg
Method: Imazalil and Hexamidine were tested for synergistic activity using a zone diffusion test.

acid phosphatase = assay: Acid phosphatase production by P. acnes in continuous culture (chemostat); format: cell-based, Propionibacterium acnes; conditions: growth in the presence of 10 μg/ml Imazalil
From the text: (§1) The enzymes are believed to play a role in the pathogenesis of acne. Imazalil is a direct lipase inhibitor and also reduces the production of hyaluronidase and acid phosphatase. Hexamidine likewise reduces the lipase activity.
(§2) Imazalil and Hexamidine have been studied for anti-enzymic properties against the production and activity of the exoenzymes of Propionibacterium acnes.
(§3) (ii) Imazalil reduced the output of hyaluronidase and acid phosphatase by P.acnes.
(§4) Levels of hyaluronidase fell by 50% after growth in the presence of 10 μg/ml Imazalil.
(§5) (ii) Production of lipase, hyaluronidase and acid phosphatase was markedly affected by a mixture of 10 μg/ml Imazalil and 1 μg/ml Hexamidine. […] Hyaluronidase output was reduced by 50%. Acid phosphatase output was reduced by 80%.

Pi. ovale = assay: Zone diffusion test; format: cell-based; conditions: Pityrosporum ovale, read-out: Zone of Imhibition, Pi. ovale
S. epidermidis = assay: Zone diffusion test; format: cell-based
Method: (§6) A zone diffusion test was carried out on the three emulsions. The results were as follows:
(§7) The ranking order for activity against P. acnes was the same as the GMS emulsions.

P. acnes [2] = assay: Zone diffusion test; format: cell-based
Method: as §6, §7

hyaluronidase = assay: Hyaluronidase production by P. acnes in continuous culture (chemostat); format: cell-based, Propionibacterium acnes; conditions: growth in the presence of 10 μg/ml Imazalil
From the text: as §1, §2, §3, §4, §5

lipase = assay: Direct inhibition of P. acnes lipase activity; format: biochemical, Propionibacterium acnes
Method: as §2
There was a 29% reduction of lipase activity in the presence of 10 μg/ml Imazalil and a 68% reduction with 100 μg/ml Imazalil.
(i) A leval of 1 μg/ml Hexamidine reduced lipase activity by 33%.
(i) 100 μg/ml Imazalil and 1 ug/ml Hexamidine reduced lipase activity by 55%.

P. acnes [3] = assay: Zone diffusion test using 1% artificial sebum in agar (resistance to inactivation by sebum); format: cell-based; conditions: for zone of inhibition at 10 µg/disc / zone of inhibition at 100 µg/disc: Cutibacterium acnes; for zone of inhibition at 10 µg/disc: 10 μg; for zone of inhibition at 100 µg/disc: 100 μg
[4] = 1% artificial sebum in agar, read-out: Zone of Inhibition, Sebum
[5] = control agar, read-out: Zone of Inhibition, Control

In the case of `C=CCOC(Cn1ccnc1)c1ccc(Cl)cc1Cl` (stereo not drawn) [Imazalil, 1-[2-(2,4-dichlorophenyl)-2-(2-propenyloxy)ethyl]-1H-imidazole], the zone of inhibition at 10 µg/disc [1] is reported as 0 mm, the zone of inhibition at 100 µg/disc [1] is reported as 5.5 mm and the “Production of acid phosphatase” value (acid phosphatase) is reported as “totally inhibited”. The zone of inhibition at 10 µg/disc (Pi. ovale; 10 μg) was 11 mm, the zone of inhibition at 80 µg/disc (Pi. ovale; 80 μg) was 28 mm and the zone of inhibition at 10 µg/disc (S. epidermidis; Staphylococcus epidermidis, 10 μg, read-out: Zone of Imhibition, S. epidermidis) was 3 mm. For the same compound, the zone of inhibition at 80 µg/disc (S. epidermidis; Staphylococcus epidermidis, 80 μg, read-out: Zone of Imhibition, S. epidermidis) was 7.5 mm, the zone of inhibition at 10 µg/disc (P. acnes [2]; Cutibacterium acnes, 10 μg, read-out: Zone of Imhibition, P. acnes) was 3 mm and the zone of inhibition at 80 µg/disc (P. acnes [2]; Cutibacterium acnes, 80 μg, read-out: Zone of Imhibition, P. acnes) was 22 mm. For the same compound, the “fall of hyaluronidase levels” value (hyaluronidase) was 50%, the “reduction of lipase activity” value (lipase; 10 μg/ml Imazalil) was 29% and the “reduction of lipase activity” value (lipase; 100 μg/ml Imazalil) was 68%. The “inhibitive effect of lipids (sebum) on activity” value (P. acnes [3]; 1% artificial sebum in agar) was “partially inhibited”, the zone of inhibition at 10 µg/disc (P. acnes [3]; [4]) was 0 mm and the zone of inhibition at 10 µg/disc (P. acnes [3]; [5]) was 0 mm. It also gave a zone of inhibition at 100 µg/disc (P. acnes [3]; [4]) of 1.5 mm and a zone of inhibition at 100 µg/disc (P. acnes [3]; [5]) of 5 mm.
Work on `N=C(N)c1ccc(OCCCCCCOc2ccc(C(=N)N)cc2)cc1` [Hexamidine, 4,4-(hexamethylene (dihydroxy)-dibenzamidine-di-β-hydroxy ethanesulfonate] yielded a zone of inhibition at 1 µg/disc ([1]; 1 μg) of 3 mm, a zone of inhibition at 10 µg/disc [1] of 10 mm and a zone of inhibition at 100 µg/disc [1] of 29.5 mm. For the same compound, the “Zone of Imhibition, S. epidermidis” value (S. epidermidis; 20 μg) was 13 mm, the zone of inhibition at 20 µg/disc (S. epidermidis; Staphylococcus epidermidis, 20 μg, read-out: Zone of Imhibition, S. epidermidis) was 10 mm and the “Zone of Imhibition, P. acnes” value (P. acnes [2]; 20 μg) was 22.5 mm. The zone of inhibition at 20 µg/disc (P. acnes [2]; Cutibacterium acnes, 20 μg, read-out: Zone of Imhibition, P. acnes) was 17 mm, the “reduction of lipase activity” value (lipase; 1 μg/ml Hexamidine) was 33% and the “inhibitive effect of lipids (sebum) on activity” value (P. acnes [3]; 1% artificial sebum in agar) was “totally resistant”. The zone of inhibition at 10 µg/disc (P. acnes [3]; [4]) was 11 mm, the zone of inhibition at 10 µg/disc (P. acnes [3]; [5]) was 9 mm and the zone of inhibition at 100 µg/disc (P. acnes [3]; [4]) was 33 mm. For the same compound, the zone of inhibition at 100 µg/disc (P. acnes [3]; [5]) was 31.5 mm.
